Source: EPA's ToxValDB 9.5 (doi:10.2903/j.efsa.2012.2921)
Values joined by “and” are separate entries in the source; they are usually repeats but may differ in a detail not shown here. Identical values can stand only once.

Tests used:
Apis mellifera = details: acute, mortality
Rattus norvegicus = details: for NOAEL: no effects
Tagia sp. = details: acute; duration: 14 days; mortality
Pimephales promelas = details: chronic/long-term; duration: 33 days; growth
Canidae = details: chronic; duration: 1 years; oral; Dog Other; no effects
Oryctolagus sp. = details: reproduction developmental; no effects
Oncorhynchus mykiss = details: acute; duration: 96 hours; mortality
Bibionidae = details: chronic/long-term; duration: 28 days
Mus musculus = details: no effects
Folsomia candida = details: chronic/long-term
Daphnia magna = details: chronic/long-term; duration: 21 days; reproduction
[1] = subchronic, duration: 90 days, oral

CCCCCCCCc1c(CC)nc2ncnn2c1N [Ametoctradin]
LD50 (Apis mellifera; dermal): > 100 µg/piece | LD50 (Apis mellifera; oral, unspecified): > 112 µg/piece | LD50 (Rattus norvegicus; acute, oral, mortality): > 2000 mg/kg-day | NOAEL (Rattus norvegicus; chronic, duration: 2 years): 871 mg/kg-day | NOAEL (Rattus norvegicus; reproduction developmental): ≥ 939 mg/kg-day and 1000 mg/kg-day | NOAEL (Rattus norvegicus; [1]): 1080 mg/kg-day | LC50 (Tagia sp.): > 1000 mg/kg | NOEC (Pimephales promelas): 0.048 mg/L | NOAEL (Canidae): 848 mg/kg-day | LC50 (Colinus virginianus; acute, oral, diet, mortality): > 758 mg/kg-day | LD50 (Colinus virginianus; acute, oral, mortality): > 2000 mg/kg-day | NOEC (Colinus virginianus; reproduction developmental): ≥ 115 mg/kg-day | NOAEL (Oryctolagus sp.): 1000 mg/kg-day | LC50 (Oncorhynchus mykiss): > 0.0646 µg/mL | NOEC (Bibionidae): 222 mg/kg | NOAEL (Mus musculus; chronic, duration: 18 months): 1100 mg/kg-day | NOAEL (Mus musculus; [1]): 1120 mg/kg-day | NOEC (Folsomia candida): ≥ 268 mg/kg | NOEC (Daphnia magna): 0.044 mg/L | LD50 (Anas platyrhynchos; acute, oral, unspecified, mortality): > 2000 mg/kg-day | NOEC (Anas platyrhynchos; reproductive): ≥ 188 mg/kg-day | LC50 (Anas platyrhynchos; short-term, oral, feed, mortality): > 1550 mg/kg-day
